# According to US20060094744A1, “Pharmaceutical dosage forms of stable amorphous rapamycin like compounds” (priority 2004, published 2006):
# Assay: Differential scanning calorimetry of amorphous sirolimus (glass transition temperature)
# Format: physicochemical
# Conditions: DSC, TA-Instruments Q1000 MTDSC, approximately 3 mg, heating rate 2° C./min; higher Tg is said to mean a more stable amorphous material
# Experimental: In another test, the amorphous sirolimus is analyzed utilizing differential scanning calorimetry. Essentially, the purpose of this test is to determine the glass transition temperature of the amorphous sirolimus. In this test, approximately 3 mg of amorphous sirolimus is transferred into a standard aluminum TA-Instrument sample pan and covered. The DSC curve is recorded on a TA-Instruments Q1000 MTDSC equipped with a RCS cooling unit. FIG. 2 illustrates a differential scanning calorimetry curve of amorphous sirolimus.
smiles,measurement,value
"CO[C@H]1C[C@@H]2CC[C@@H](C)[C@@](O)(O2)C(=O)C(=O)N2CCCC[C@H]2C(=O)O[C@H]([C@H](C)C[C@@H]2CC[C@@H](O)[C@H](OC)C2)CC(=O)[C@H](C)/C=C(\C)[C@@H](O)[C@@H](OC)C(=O)[C@H](C)C[C@H](C)/C=C/C=C/C=C/1C [amorphous sirolimus, (3S,6R,7E,9R,10R,12R,14S,15E,17E,19E,21 S,23S, 26R,27R,34aS)-9, 10, 12, 13, 14,21,22,23,24,25,26,27,32,33,34, 34a-hexadecahydro-9,27-dihydroxy-3-[(1R)-2-[(1S,3R,4R)-4-hydroxy-3-methoxycyclohexyl]-1-methylethyl]-10,21-dimethoxy-6,8,12,14,20,26-hexamethyl-23,27-epoxy-3H-pyrido[2,1-c][1,4] oxaazacyclohentriacontine-1,5,11,28,29(4H,6H,31H)-pentone]",glass transition temperature,about 93 °C
